Reference: the CheMixHub ionic liquid set

Experiment: xn = mol fraction of the nth substance listed
Conditions: 101 kPa

CCCCCCCCCCCC[N+](C)(C)Cc1ccccc1.[Cl-] + CC(C)C[C@H](N)C(=O)O + O
electrical conductivity [S/m]
Conditions | 293.15 K | 298.15 K | 303.15 K | 308.15 K | 313.15 K
x2 = 0.001798, x1 = 0.0001441 | 0.0541 | 0.0606 | 0.0671 | 0.074 | 0.0811
x2 = 0.001798, x1 = 0.0001691 | 0.061 | 0.068 | 0.0755 | 0.0833 | 0.0918
x2 = 0.001798, x1 = 0.0001949 | 0.0661 | 0.0738 | 0.0821 | 0.0911 | 0.101
x2 = 0.001798, x1 = 0.0002208 | 0.0704 | 0.0788 | 0.0879 | 0.0977 | 0.108
x2 = 0.001798, x1 = 0.0002443 | 0.0741 | 0.0832 | 0.0928 | 0.103 | 0.116
x2 = 0.001798, x1 = 0.0002664 | 0.0776 | 0.0872 | 0.0975 | 0.109 | 0.122
x2 = 0.001798, x1 = 0.0002864 | 0.0807 | 0.0908 | 0.102 | 0.114 | 0.127
x2 = 0.001798, x1 = 0.0003052 | 0.0838 | 0.0941 | 0.106 | 0.118 | 0.132
x2 = 0.001798, x1 = 0.0003239 | 0.0872 | 0.0976 | 0.11 | 0.123 | 0.137
x2 = 0.001799, x1 = 5.649e-05 | 0.0231 | 0.0258 | 0.0287 | 0.0317 | 0.0346
x2 = 0.001799, x1 = 7.89e-05 | 0.0314 | 0.035 | 0.0389 | 0.0428 | 0.0469
x2 = 0.001799, x1 = 9.986e-05 | 0.0387 | 0.0435 | 0.0482 | 0.0532 | 0.0582
x2 = 0.001799, x1 = 0.0001206 | 0.0462 | 0.0518 | 0.0574 | 0.0633 | 0.0693
x2 = 0.008927, x1 = 0.0002331 | 0.0722 | 0.0806 | 0.0896 | 0.0994 | 0.11
x2 = 0.008927, x1 = 0.0002565 | 0.0758 | 0.0847 | 0.0944 | 0.105 | 0.117
x2 = 0.008927, x1 = 0.0002782 | 0.079 | 0.0883 | 0.0986 | 0.11 | 0.122
x2 = 0.008927, x1 = 0.0002981 | 0.0818 | 0.0918 | 0.102 | 0.115 | 0.127
x2 = 0.008927, x1 = 0.0003168 | 0.0845 | 0.0949 | 0.106 | 0.119 | 0.132
x2 = 0.008927, x1 = 0.0003371 | 0.0874 | 0.0983 | 0.11 | 0.123 | 0.137
x2 = 0.008928, x1 = 0.0001252 | 0.0463 | 0.0518 | 0.0574 | 0.0633 | 0.0692
x2 = 0.008928, x1 = 0.0001513 | 0.0552 | 0.0616 | 0.0682 | 0.075 | 0.082
x2 = 0.008928, x1 = 0.000179 | 0.0627 | 0.0698 | 0.0773 | 0.0853 | 0.0937
x2 = 0.008928, x1 = 0.000207 | 0.068 | 0.0757 | 0.084 | 0.093 | 0.103
x2 = 0.008929, x1 = 5.804e-05 | 0.0225 | 0.0252 | 0.028 | 0.031 | 0.0339
x2 = 0.008929, x1 = 7.973e-05 | 0.0302 | 0.0339 | 0.0376 | 0.0414 | 0.0454
x2 = 0.008929, x1 = 0.0001014 | 0.038 | 0.0425 | 0.0472 | 0.0519 | 0.0568
